Measured values taken from patent publication US12269859B2, “Synthetic immune receptors and methods of use thereof” (Angeles Therapeutics, Inc., priority 2016, dated 2025).

How the values were obtained:
[1] = test system: RAJI cells; assay: RAJI xenograft model of lymphoma in NSG mice (survival); assay type: in vivo
Method: In vivo efficacy of SIR targeting CD19. […] SIR constructs and Gluc-PAC-G07 control construct encoding non-secretory form of Guassia Luciferase. Approximately half the cells were selected with puromycin while the other half was expanded without puromycin selection. NSG mice (Jackson Lab) were sub-lethally irradiated at a dose of 175 cGy. Approximately 24 hours post irradiation (day 2), mice were injected with 2.5×10^4 RAJI cells via tail-vein. […] Control mice (n=5) received no T cells or uninfected T cells. Mice were given human IL2 (400 IU intraperitoneally) on alternate days till the death of all mice in control group.
Approximately half the cells were selected with puromycin while the other half was expanded without puromycin selection. NSG mice (Jackson Lab) were sub-lethally irradiated at a dose of 175 cGy. Approximately 24 hours post irradiation (day 2), mice were injected with 2.5×10^4 RAJI cells via tail-vein. […] Control mice (n=5) received no T cells or uninfected T cells. Mice were given human IL2 (400 IU intraperitoneally) on alternate days till the death of all mice in control group.
SIR construct. NSG mice (Jackson Lab) were sub-lethally irradiated at a dose of 175 cGy. Approximately 24 hours post irradiation (day 2), mice were injected with 2.5×10^4 RAJI cells via tail-vein. […] SIR encoding lentivirus. Control mice (n=5) were injected with 5 million uninfected T cells or given no T cells.
SIR constructs. […] SIR were included as controls. NSG mice (n=5) were sub-lethally irradiated at a dose of 175 cGy. 24 hours post irradiation (day 2), mice were injected with 2.5×10^4 RAJI cells via tail-vein. […] Mice were given human IL2 (400 IU i.p.) on alternate days till the death of all mice in control group.
Human peripheral blood T cells isolated using CD3 magnetic beads were infected with lentiviruses expressing the indicated SIR constructs targeting Lym1 and Lym2. On day 1, the NSG mice were sub-lethally irradiated at a dose of 175 cGy. 24 hours post irradiation (day 2), mice were injected with 25×10^3 Raji cells intravenously. On day 3, the mice were treated intravenously with 10 million indicated CAR-T cells. Beginning on day 4, mice were injected with human IL-2 i.p. at a dose of 400 IU/mice every alternate day after the injection CAR-T cells till the death of all mice in control group.

[2] = test system: Protein L magnetic beads; assay: Jurkat NFAT-GFP assay, coculture with Protein L magnetic beads; assay type: cell-based, human; conditions: coculture with Protein L beads for 18 hours
From the text: Use of Protein L microbeads and Protein L expressing cells for stimulation of SIR and CAR expressing cells. A number of Human cell-based artificial antigen-presenting cells for cancer immunotherapy have been described. One approach for ex vivo expansion of CAR^+ and SIR^+ T cells involves the use of irradiated artificial antigen presenting cells (aAPC) expressing the targeted tumor associated antigen (TAA). However, this approach requires that the aAPC be engineered to express each individual TAA. To overcome this problem, a universal antigen presenting cell was developed. Protein L is an immunoglobulin (Ig) light chain-binding protein expressed by some strains of the anaerobic bacterial species Peptostreptococcus magnus. […] As an alternative to expressing individual TAAs on aAPC, experiments were performed to determine if Protein L could activate CAR^+ T and SIR^+ T cells independent of specificity. In the initial experiments, coculture of Jurkat-NFAT-GFP cells expressing different CAR and SIR constructs were tested to determine whether Protein L magnetic beads would lead to induction of GFP expression. Pierce Protein L magnetic beads (cat. #88849; concentration 10 mg/ml) were purchased from ThermoFisher and diluted 1:10 in PBS. Approximately 10 μl of diluted beads were added per well in a U-bottom 96-well plate. […] CAR were added to the wells and cocultured with the beads for 18 hours. […]

[3] = test system: 293-Protein L-II cells; assay: Jurkat NFAT-GFP assay, coculture with 293-Protein L-II cells; assay type: cell-based, human; conditions: co-culture with 293-Protein L-II cells approximately 18 hours
From the text: Generation of human aAPC expressing Protein L on cell surface. Lentiviral chimeric antigen receptor (CAR) constructs were generated expressing different regions of Protein L in fusion with hinge and transmembrane regions of human CD8, 41BB costimulatory domain and CD3z chain. The nucleotide sequence of Protein L was codon optimized for optimal expression in human cells. It needs to be noted that the 41BB costimulatory domain and CD3z chain are not essential for the function of Protein L for the purpose of this invention. The vectors also carried N-terminal signal peptides derived from either human CD8 or IgH to allow cell surface transport of Protein L. The complete nucleic acid and amino acid sequence of the vectors are provided in SEQ ID NO: 888 and SEQ ID NO: 889.
Next, 293 cells were infected with a lentivirus vector encoding the Protein L-II construct (072716-K01) and polyclonal population of cells stably expressing Protein L were generated following selection with 750 ng/ml puromycin. […] SIR constructs. […] The use of Protein-L expressing aAPC is, however, not limited to above type of cells. These cells can serve as universal aAPC for any immune effector cell which carries an antigen binding domain derived from a suitable κ chain containing antibody that can bind to Protein L.

[4] = test system: RAJI cells; assay: Jurkat NFAT-GFP assay, coculture with RAJI cells; assay type: cell-based, human; conditions: SIR/CAR-expressing Jurkat-NFAT-GFP cells cocultured with RAJI cells
Method: (B) Induction of NFAT promoter driven GFP expression. The control vector- and SIR-expressing Jurkat-NFAT-GFP cocultured for 4-24 hours with the target antigen-expressing cell line (described above) and their ability to bind to the target antigen is assayed by measuring induction of GFP expression using Flow Cytometry. Cellular supernatant is collected and assayed for the induction of cytokines (e.g., IL2).
Jurkat NFAT-GFP Assay For Synthetic Immune Receptors. The Jurkat-NFAT-GFP cells are engineered in such a way that the IL-2 promoter, which carries NFAT binding sites, is cloned upstream of the GFP gene. These cells have been used to study signaling via TCR and CAR. […]
Induction of GFP expression by coculturing of Jurkat-NFAT-GFP cells expressing different SIR constructs and the different target cells was studied essentially as described previously (Wu, Roybal, Puchner, Onuffer, & Lim, 2015). GFP expression was monitored by FACS analysis. […] The names of different SIRs, their SEQ ID NOs, component antigen binding domains and TCR chains can be determined by reference to Tables 7A-7H. […] The signs +/−, +, 2+ etc. after the name of the cell lines indicate the relative degree of positivity on the Jurkat-NFAT-GFP assay as measured by the % GFP positive cells after culture of the SIR expressing Jurkat-NFAT-GFP cells with that cell line.

Compound: Cc1sc2c(c1C)C(c1ccc(Cl)cc1)=N[C@@H](CC(=O)OC(C)(C)C)c1nnc(C)n1-2 [JQ1(+), reference compound]
- persistence of SIR-T cells and survival vs vehicle (in words) ([1]; 50 mg/kg twice daily intra-peritoneal, mice receiving SEQ ID NO: 1200 SIR-T cells): longer persistence of SIR-T cells and survive longer

Compound: COc1ccc(-c2cc3c(C)nc(N)nc3n([C@H]3CC[C@H](OCCO)CC3)c2=O)cn1 [PF-04691502, reference compound]
- median survival of mice given SIR-T cells expanded in presence vs absence of the inhibitor (in words) ([1]; SIR-T (SEQ ID NO:900) expanded with 0.10 μM to 0.5 μM): higher

Compound: CD8SP-FMC63(vL-vH)-Myc-BBz-T2A-PAC [SEQ ID NO:4501, reference compound]
- induction of GFP expression (in words) [2]: modest induction of GFP expression
- induction of GFP expression (in words) [3]: strong induction of GFP expression

Compound: pSBbi-puro-FMC63vL-V5-[TCRb-KACIAH]-F-P2A-FMC63vH-MYC-[TCRa-CSDVP]-F-F2A [SEQ ID NO:875]
- induction of GFP expression / NFAT signaling (in words) [4]: showed GFP induction
